From the NIST ThermoML archive (doi:10.1021/je900596d)

Conditions: Vibrating tube method

FC(F)=C(F)C(F)(F)F [hexafluoropropene]
Conditions	mass density [kg/m3]
323.21 K, 828.7 kPa, Fluid (supercritical or subcritical phases)	54.45
323.21 K, 843.1 kPa, Fluid (supercritical or subcritical phases)	55.34
323.21 K, 857.3 kPa, Fluid (supercritical or subcritical phases)	56.72
323.21 K, 871.6 kPa, Fluid (supercritical or subcritical phases)	57.78
323.21 K, 885.7 kPa, Fluid (supercritical or subcritical phases)	58.95
323.21 K, 899.5 kPa, Fluid (supercritical or subcritical phases)	60.25
323.21 K, 913.3 kPa, Fluid (supercritical or subcritical phases)	61.27
323.21 K, 926.9 kPa, Fluid (supercritical or subcritical phases)	62.44
323.21 K, 940.4 kPa, Fluid (supercritical or subcritical phases)	63.5
323.21 K, 953.6 kPa, Fluid (supercritical or subcritical phases)	64.78
323.21 K, 979.1 kPa, Fluid (supercritical or subcritical phases)	66.9
323.21 K, 991.3 kPa, Fluid (supercritical or subcritical phases)	67.99
323.21 K, 1002.7 kPa, Fluid (supercritical or subcritical phases)	69.01
323.21 K, 1014.7 kPa, Fluid (supercritical or subcritical phases)	70.07
323.21 K, 1026.1 kPa, Fluid (supercritical or subcritical phases)	71.06
323.21 K, 1037.2 kPa, Fluid (supercritical or subcritical phases)	72
323.21 K, 1048.9 kPa, Fluid (supercritical or subcritical phases)	73.11
323.21 K, 1059.5 kPa, Fluid (supercritical or subcritical phases)	74
323.21 K, 1071.8 kPa, Fluid (supercritical or subcritical phases)	75.2
323.21 K, 1084.6 kPa, Fluid (supercritical or subcritical phases)	76.45
323.21 K, 1096.6 kPa, Fluid (supercritical or subcritical phases)	77.55
323.21 K, 1108.7 kPa, Fluid (supercritical or subcritical phases)	78.69
323.21 K, 1120.7 kPa, Fluid (supercritical or subcritical phases)	80.05
323.21 K, 1132.3 kPa, Fluid (supercritical or subcritical phases)	81.01
323.21 K, 1143.9 kPa, Fluid (supercritical or subcritical phases)	82.09
323.21 K, 1155.2 kPa, Fluid (supercritical or subcritical phases)	83.24
323.21 K, 1165.7 kPa, Fluid (supercritical or subcritical phases)	84.23
323.21 K, 1176.1 kPa, Fluid (supercritical or subcritical phases)	85.31
323.21 K, 1188.5 kPa, Fluid (supercritical or subcritical phases)	86.52
323.21 K, 1200.2 kPa, Fluid (supercritical or subcritical phases)	87.81
323.21 K, 1211.6 kPa, Fluid (supercritical or subcritical phases)	88.92
323.21 K, 1222.4 kPa, Fluid (supercritical or subcritical phases)	90.01
323.21 K, 1232.6 kPa, Fluid (supercritical or subcritical phases)	91.08
323.21 K, 1244.2 kPa, Fluid (supercritical or subcritical phases)	92.41
323.21 K, 1254.9 kPa, Fluid (supercritical or subcritical phases)	93.54
323.21 K, 1265.5 kPa, Fluid (supercritical or subcritical phases)	94.64
323.21 K, 1276.2 kPa, Fluid (supercritical or subcritical phases)	95.86
323.21 K, 1286.6 kPa, Fluid (supercritical or subcritical phases)	97.01
323.21 K, 1298.7 kPa, Fluid (supercritical or subcritical phases)	98.44
323.21 K, 1311.6 kPa, Fluid (supercritical or subcritical phases)	99.8
323.21 K, 1324 kPa, Fluid (supercritical or subcritical phases)	101.35
323.21 K, 1336 kPa, Fluid (supercritical or subcritical phases)	102.77
323.21 K, 1347.5 kPa, Fluid (supercritical or subcritical phases)	104.06
323.21 K, 1358.7 kPa, Fluid (supercritical or subcritical phases)	105.47
323.21 K, 1369.5 kPa, Fluid (supercritical or subcritical phases)	106.75
323.21 K, 1380 kPa, Fluid (supercritical or subcritical phases)	108.11
323.21 K, 1392.5 kPa, Fluid (supercritical or subcritical phases)	109.8
323.21 K, 1402.5 kPa, Fluid (supercritical or subcritical phases)	110.98
323.21 K, 1410.5 kPa, Fluid (supercritical or subcritical phases)	112.1
323.21 K, 1411.1 kPa, Fluid (supercritical or subcritical phases)	112.29
323.21 K, 1411.8 kPa, Fluid (supercritical or subcritical phases)	112.41
323.21 K, 1412.5 kPa, Fluid (supercritical or subcritical phases)	112.57
323.21 K, 1413.3 kPa, Fluid (supercritical or subcritical phases)	112.79
323.21 K, 1414.6 kPa, Fluid (supercritical or subcritical phases)	113.23
323.21 K, 1415.9 kPa, Fluid (supercritical or subcritical phases)	113.81
323.21 K, 1417 kPa, Fluid (supercritical or subcritical phases)	114.07
323.21 K, 1417.8 kPa, Fluid (supercritical or subcritical phases)	114.29
323.21 K, 1418.6 kPa, Fluid (supercritical or subcritical phases)	115.65
323.21 K, 1418.8 kPa, Fluid (supercritical or subcritical phases)	116.26
323.37 K, 1419.4 kPa, Liquid	1174.23
323.37 K, 1421.5 kPa, Liquid	1174.38
323.37 K, 1423.2 kPa, Liquid	1174.38
323.37 K, 1425.7 kPa, Liquid	1174.43
323.37 K, 1427.1 kPa, Liquid	1174.45
323.37 K, 1432.2 kPa, Liquid	1174.63
323.37 K, 1436.2 kPa, Liquid	1174.81
